The source of these data is patent US20250230193A1, “CYCLIC COMPOUND HAVING SELECTIVE KRAS INHIBITORY EFFECT ON HRAS AND NRAS” (CHUGAI SEIYAKU KABUSHIKI KAISHA, priority 2022, published 2025).

Each structure is given as a SMILES string. Where a SMILES comes first, the peptide text is derived from it. Bridges are numbered along the chain shown (N, C = ends). [ ]: non-standard residue; d: D form. The star is where a group is joined. hPhe(3-Cl-4-CF3) = N[C@@H](CCc1ccc(C(F)(F)F)c(Cl)c1)C(=O)O; NMePhe(4-Me) = CN[C@@H](Cc1ccc(C)cc1)C(=O)O; NMeGly(cPent) = CN[C@H](C(=O)O)C1CCCC1; NMeD = CN[C@@H](CC(=O)O)C(=O)O; NMeL = CN[C@@H](CC(C)C)C(=O)O; NMeS = CN[C@@H](CO)C(=O)O; Morpholide = C1CN(*)CCO1; NMeA = CN[C@@H](C)C(=O)O; Ac5c = NC1(C(=O)O)CCCC1; Aze = O=C(O)[C@@H]1CCN1; Sar = CNCC(=O)O

The target in assay [1] is GDP-bound NRAS wild-type protein (Homo sapiens, UniProt P01111). Briefly: Binding to NRAS by surface plasmon resonance (SPR), Single Cycle Kinetics.
Sequence of GDP-bound NRAS wild-type protein (P01111 whole entry): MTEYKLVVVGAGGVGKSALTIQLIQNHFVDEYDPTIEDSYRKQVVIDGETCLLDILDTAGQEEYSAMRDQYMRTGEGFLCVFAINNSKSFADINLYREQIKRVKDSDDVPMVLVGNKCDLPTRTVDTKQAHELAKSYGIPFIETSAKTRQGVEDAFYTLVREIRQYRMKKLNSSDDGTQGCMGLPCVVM
Assay [2] addresses GDP-bound HRAS wild-type protein (Homo sapiens, UniProt P01112). As to the kind of experiment: Binding to HRAS by surface plasmon resonance (SPR), Single Cycle Kinetics. A general note: In SPR one partner is held on a chip, and binding of the other changes the refractive index at the surface.
Where [3] appears, read: KD ratio, GDP-bound NRAS wild-type vs GDP-bound KRAS wild-type, SPR.
Setting [4] is: KD ratio, GDP-bound HRAS wild-type vs GDP-bound KRAS wild-type, SPR.
[5] abbreviates: SPR, GDP-bound wild-type proteins.

Sequence of GDP-bound HRAS wild-type protein (P01112 whole entry): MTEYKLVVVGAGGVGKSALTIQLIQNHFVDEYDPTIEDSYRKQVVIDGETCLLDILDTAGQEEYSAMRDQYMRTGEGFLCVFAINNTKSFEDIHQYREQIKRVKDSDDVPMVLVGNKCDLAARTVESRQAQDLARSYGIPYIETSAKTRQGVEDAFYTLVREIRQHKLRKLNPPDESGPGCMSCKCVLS

Turning to `CCO[C@@H]1C[C@H]2C(=O)NC3(CCC3)C(=O)N(C)[C@@H](C3CCCC3)C(=O)N(C)[C@H](C(=O)N(C)C)CC(=O)N(C)[C@@H](CC)C(=O)N[C@@H]([C@@H](C)CC)C(=O)N3CCCC[C@H]3C(=O)N(C)[C@H]3C/C=C\CCN(C3=O)[C@@H](Cc3ccc(C(F)(F)F)cc3)C(=O)N(C)CC(=O)N[C@@H](CCc3cc(F)c(C(F)(F)F)c(F)c3)C(=O)N2C1` [PP1058], the “NRAS/KRAS (ratio of KD value with respect to NRAS to KD value with respect to KRAS)” value in assay [1] (setting [3]) was “A (a compound having 10 or more and less than 20 is denoted as A)”. Moreover, the “HRAS/KRAS (ratio of KD value with respect to HRAS to KD value with respect to KRAS)” value in assay [2] (setting [4]) is “B (a compound having 3 or more and less than 10 is denoted as B)”.
With `CC[C@H](C)[C@@H]1NC(=O)[C@H](CC(C)C)N(C)C(=O)C[C@@H](C(=O)N2CCOCC2)N(C)C(=O)[C@H](C2CCCC2)N(C)C(=O)C2(CCCC2)NC(=O)[C@@H]2CCCN2C(=O)[C@H](CCc2ccc(C(F)(F)F)c(Cl)c2)NC(=O)CN(C)C(=O)[C@H](Cc2ccc(C)cc2)N(C)C(=O)[C@H](CO)N(C)C(=O)CN(C)C1=O` [PP0037] ([NMeL]I[Sar][NMeS][NMePhe(4-Me)][Sar][hPhe(3-Cl-4-CF3)]P[Ac5c][NMeGly(cPent)][NMeD]-Morpholide; lactam N-11), the “NRAS/KRAS (ratio of KD for GDP-bound NRAS wild-type to KD for KRAS)” value in assay [1] (SPR) was “C (A compound having a KD ratio of 0.1 or more and less than 3 is denoted as C)”. For the same molecule, the “HRAS/KRAS (ratio of KD for GDP-bound HRAS wild-type to KD for KRAS)” value in assay [2] (SPR) was “C (A compound having a KD ratio of 0.1 or more and less than 3 is denoted as C)”.
On to `CCC[C@H]1C(=O)N[C@@H]([C@@H](C)CC)C(=O)N(C)CC(=O)N(C)[C@H]2C/C=C\CCN(C2=O)[C@@H](Cc2ccc(C(F)(F)F)cc2)C(=O)N(C)CC(=O)N[C@@H](CCc2ccc(C(F)(F)F)c(Cl)c2)C(=O)N2CC3(CC3)C[C@H]2C(=O)NC2(CC(C)(C)C2)C(=O)N(C)[C@@H](CC(C)C)C(=O)N(C)[C@H](C(=O)N(C)C)CC(=O)N1C` [PP2987], for which, in assay [1] (setting [5]), the “NRAS/KRAS (ratio of KD value with respect to GDP-bound NRAS wild-type protein to KD value with respect to KRAS)” value was “AA (a compound having 20 or more is denoted as AA)”. Also, the “HRAS/KRAS (ratio of KD value with respect to GDP-bound HRAS wild-type protein to KD value with respect to KRAS)” value in assay [2] (setting [5]) is “A (a compound having 10 or more and less than 20 is denoted as A)”.
For `CC[C@H](C)[C@@H]1NC(=O)[C@H](CC(C)C)N(C)C(=O)C[C@@H](C(=O)N2CCOCC2)N(C)C(=O)[C@H](C2CCCC2)N(C)C(=O)C2(CCCC2)NC(=O)[C@@H]2CCCN2C(=O)[C@H](CCc2ccc(C(F)(F)F)c(Cl)c2)NC(=O)CN(C)C(=O)[C@H](Cc2ccc(C)cc2)N(C)C(=O)[C@@H]2CCN2C(=O)[C@H](C)N(C)C1=O` [PP0001] ([NMeL]I[NMeA][Aze][NMePhe(4-Me)][Sar][hPhe(3-Cl-4-CF3)]P[Ac5c][NMeGly(cPent)][NMeD]-Morpholide; lactam N-11), the “NRAS/KRAS (ratio of KD for GDP-bound NRAS wild-type to KD for KRAS)” value in assay [1] (SPR) was “C (A compound having a KD ratio of 0.1 or more and less than 3 is denoted as C)”. Moreover, the “HRAS/KRAS (ratio of KD for GDP-bound HRAS wild-type to KD for KRAS)” value in assay [2] (SPR) is “C (A compound having a KD ratio of 0.1 or more and less than 3 is denoted as C)”.
On to `CCC[C@H]1C(=O)N[C@@H]([C@@H](C)CC)C(=O)N[C@@H](C)C(=O)N(C)[C@H]2C/C=C\CCN(C2=O)[C@@H](Cc2ccc(C(F)(F)F)cc2)C(=O)N(C)CC(=O)N[C@@H](CCc2cc(F)c(C(F)(F)F)c(F)c2)C(=O)N2C[C@H](OCC)C[C@H]2C(=O)NC2(CC(C)(C)C2)C(=O)N(C)[C@@H](C2CCCC2)C(=O)N(C)[C@H](C(=O)N(C)C)CC(=O)N1C` [PP1927], for which the “NRAS/KRAS (ratio of KD value for NRAS to KD value for KRAS)” value in assay [1] (setting [3]) is “A (a compound having 10 or more and less than 20 is denoted as A)”. Besides, the “HRAS/KRAS (ratio of KD value for HRAS to KD value for KRAS)” value in assay [2] (setting [4]) was “A (a compound having 10 or more and less than 20 is denoted as A)”.
On to `CCO[C@@H]1C[C@H]2C(=O)NC3(CC(C)(C)C3)C(=O)N(C)[C@@H](C3CCCCC3)C(=O)N(C)[C@H](C(=O)N(C)C)CC(=O)N(C)[C@@H](COC)C(=O)N[C@@H]([C@@H](C)CC)C(=O)N(C)CC(=O)N(C)[C@H]3C/C=C\CCN(C3=O)[C@@H](Cc3ccc(C)cc3)C(=O)N(C)CC(=O)N[C@@H](CCc3cc(F)c(C(F)(F)F)c(F)c3)C(=O)N2C1` [PP2659], for which, in assay [1] (class symbols), the “NRAS/KRAS (ratio of KD value with respect to GDP-bound NRAS wild-type protein to KD value with respect to KRAS)” value is “A (a compound having 10 or more and less than 20 is denoted as A)”. Further, in assay [2] (class symbols), the “HRAS/KRAS (ratio of KD value with respect to GDP-bound HRAS wild-type protein to KD value with respect to KRAS)” value is “A (a compound having 10 or more and less than 20 is denoted as A)”.
Regarding `CC[C@H](C)[C@@H]1NC(=O)[C@H](CC(C)C)N(C)C(=O)C[C@@H](C(=O)N(C)C)N(C)C(=O)[C@H](C2CCCC2)N(C)C(=O)C2(CC(C)(C)C2)NC(=O)[C@@H]2C[C@H](C)CN2C(=O)[C@H](CCc2cc(F)c(C(F)(F)F)c(F)c2)NC(=O)CN(C)C(=O)[C@H](Cc2ccc(C(F)(F)F)cc2)N2CC/C=C\C[C@@H](C2=O)N(C)C(=O)CN(C)C1=O` [PP1662], the “NRAS/KRAS (ratio of KD value for NRAS to KD value for KRAS)” value in assay [1] (setting [3]) was “A (a compound having 10 or more and less than 20 is denoted as A)”. The “HRAS/KRAS (ratio of KD value for HRAS to KD value for KRAS)” value in assay [2] (setting [4]) was “B (a compound having 3 or more and less than 10 is denoted as B)”.
